How the values were obtained:
[1] = target: T1, Recombinant purified human BTK (Homo sapiens, UniProt Q06187); assay: BTK kinase inhibitory activity, ADP-Glo kinase assay (Promega V9071); assay type: biochemical; details: for IC50: ATP 10 uM, 8 ng BTK per reaction, 1 hour 30 °C, chemiluminescence
T1 construct: purchased Promega V9071
In short: (§1)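 Recombinant human kinases in Tris pH 7.5 buffer with MgCl2, BSA and DTT (MnCl2 added for BTK), 4 ng JAK3 or 8 ng BTK per reaction. Poly(Glu4,Tyr1) 0.2 µg/µL with 5 µM (JAK3) or 10 µM (BTK) ATP, 1% DMSO, 1 h at 30 °C. ADP-Glo luminescence used to derive IC50.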

[2] = target: T2, Recombinant purified human JAK3 (Homo sapiens, UniProt P52333); assay: JAK3 kinase inhibitory activity, ADP-Glo kinase assay (Promega V9441); assay type: biochemical; details: ATP 5 uM, 4 ng JAK3 per reaction, 1 hour 30 °C, chemiluminescence
T2 construct: purchased Promega V9441
T2 sequence (P52333 1-1124): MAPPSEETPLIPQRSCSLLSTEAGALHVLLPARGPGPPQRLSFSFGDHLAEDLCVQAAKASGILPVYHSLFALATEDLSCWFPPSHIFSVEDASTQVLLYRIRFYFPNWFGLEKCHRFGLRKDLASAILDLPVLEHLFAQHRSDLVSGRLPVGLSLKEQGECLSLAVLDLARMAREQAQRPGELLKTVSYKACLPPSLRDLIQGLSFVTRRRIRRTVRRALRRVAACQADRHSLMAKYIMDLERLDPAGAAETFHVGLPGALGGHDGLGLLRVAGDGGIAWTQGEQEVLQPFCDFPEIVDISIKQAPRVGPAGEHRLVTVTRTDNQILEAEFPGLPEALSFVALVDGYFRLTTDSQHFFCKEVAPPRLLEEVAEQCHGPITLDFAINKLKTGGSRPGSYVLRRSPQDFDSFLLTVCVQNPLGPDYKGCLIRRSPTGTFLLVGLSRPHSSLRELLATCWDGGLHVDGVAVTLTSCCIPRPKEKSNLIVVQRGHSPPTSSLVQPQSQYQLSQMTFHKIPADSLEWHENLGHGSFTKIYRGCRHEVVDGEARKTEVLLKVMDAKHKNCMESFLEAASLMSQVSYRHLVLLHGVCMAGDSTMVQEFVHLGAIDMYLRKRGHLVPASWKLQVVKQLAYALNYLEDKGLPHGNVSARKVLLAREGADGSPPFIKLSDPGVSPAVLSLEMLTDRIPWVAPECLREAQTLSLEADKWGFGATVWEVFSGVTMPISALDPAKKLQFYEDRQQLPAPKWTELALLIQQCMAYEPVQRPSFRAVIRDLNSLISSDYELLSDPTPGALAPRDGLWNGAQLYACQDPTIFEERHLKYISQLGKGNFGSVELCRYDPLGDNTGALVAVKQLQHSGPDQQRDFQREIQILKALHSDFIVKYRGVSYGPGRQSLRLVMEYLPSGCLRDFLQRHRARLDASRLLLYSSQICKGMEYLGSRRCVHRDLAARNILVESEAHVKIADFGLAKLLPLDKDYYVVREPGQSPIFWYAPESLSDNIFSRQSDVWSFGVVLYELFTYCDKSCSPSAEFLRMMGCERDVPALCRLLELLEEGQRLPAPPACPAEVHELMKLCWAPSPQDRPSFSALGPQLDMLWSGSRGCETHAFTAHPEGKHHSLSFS
In short: as §1

T1 sequence (Q06187 whole entry): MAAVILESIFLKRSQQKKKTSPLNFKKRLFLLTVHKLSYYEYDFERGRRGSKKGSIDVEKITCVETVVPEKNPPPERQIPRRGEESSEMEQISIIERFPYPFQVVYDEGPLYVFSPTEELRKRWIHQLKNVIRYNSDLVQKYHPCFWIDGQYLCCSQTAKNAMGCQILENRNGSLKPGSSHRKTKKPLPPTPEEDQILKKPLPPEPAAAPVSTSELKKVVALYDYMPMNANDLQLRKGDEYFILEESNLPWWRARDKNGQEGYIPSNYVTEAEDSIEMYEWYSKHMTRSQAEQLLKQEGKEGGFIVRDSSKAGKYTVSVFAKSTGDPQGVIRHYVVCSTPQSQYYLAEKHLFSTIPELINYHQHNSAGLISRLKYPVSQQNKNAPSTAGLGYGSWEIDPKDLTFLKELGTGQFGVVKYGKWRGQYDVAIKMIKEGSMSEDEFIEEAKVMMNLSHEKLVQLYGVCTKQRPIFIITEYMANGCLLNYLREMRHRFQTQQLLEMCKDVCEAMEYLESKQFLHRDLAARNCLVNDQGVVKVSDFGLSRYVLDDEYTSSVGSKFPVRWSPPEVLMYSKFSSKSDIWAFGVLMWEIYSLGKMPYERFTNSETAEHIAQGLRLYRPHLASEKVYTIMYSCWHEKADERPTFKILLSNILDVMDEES

Row | Structure (SMILES) | IC50 [1] | IC50 [2] | inhibition at 1 µM ([1]; @1uM compound)
1 | C=CC(=O)N1CCC[C@@H](Nc2nc(Nc3cnn(CC)c3)nc3[nH]cc(C)c23)C1 [Example 79, (R)-1-(3-((2-((1-ethyl-1H-pyrazol-4-yl)amino)-5-methyl-7H-pyrrolo[2,3-d]pyrimidin-4-yl)amino)piperidin-1-yl)prop-2-en-1-one] | 9.2 nM | 0.4 nM | –
2 | C=CC(=O)N1CCC[C@@H](Nc2nc(Nc3cnn(C(C)(C)C)c3)nc3[nH]nc(C)c23)C1 [Example 187, (R)-1-(3-((6-((1-(tert-butyl)-1H-pyrazol-4-yl)amino)-3-methyl-1H-pyrazolo [3,4-d]pyrimidin-4-yl)amino)piperidin-1-yl)prop-2-en-1-one] | 1.8 nM | 14.6 nM | –
3 | C[C@@H]1CCN(C(=O)CC#N)C[C@@H]1N(C)c1nc(Nc2ccc(N3CCN(C)CC3)cc2)nc2[nH]ccc12 [Example 28, 3-((3R,4R)-4-methyl-3-(methyl(2-(4-(4-methylpiperazin-1-yl)phenylamino)-7H-pyrrolo[2,3-d]pyrimidin-4-yl)amino)piperidin-1-yl)-3-oxopropanenitrile] | – | 186 nM | 3.3%
4 | C=CC(=O)N1CCC[C@@H](N(C)c2nc(Nc3cnoc3)nc3[nH]nc(Cl)c23)C1 [Example 119] | 11.1 nM | 32.5 nM | –

The remaining lines, values ahead:

Row | IC50 [1] | IC50 [2] | inhibition at 1 µM ([1]; @1uM compound) | Structure (SMILES)
5 | 1.4 nM | 1.7 nM | – | C=CC(=O)N1CCC[C@@H](Nc2nc(Nc3cnn(CCN(CC)CC)c3)nc3[nH]ncc23)C1 [Example 145, (R)-1-(3-((6-((1-(2-(diethylamino)ethyl)-1H-pyrazol-4-yl)amino)-1H-pyrazolo[3,4-d]pyrimidin-4-yl)amino)piperidin-1-yl)prop-2-en-1-one]
6 | 2.2 nM | 3.4 nM | – | C=CC(=O)N1CCC[C@@H](Nc2nc(Nc3cnn(CC(F)F)c3)nc3[nH]ncc23)C1 [Example 31, (R)-1-(3-(6-(1-(2,2-difluoroethyl)-1H-pyrazol-4-ylamino)-1H-pyrazolo [3,4-d]pyrimidin-4-ylamino)piperidin-1-yl)prop-2-en-1-one]

Reference: patent publication EP3478687B1 (Daewoong Pharmaceutical Co., Ltd., priority 2016, dated 2018)
